What was measured:
[1] = target: rat orexin 1 receptor (Rattus norvegicus, UniProt P56718); assay: Rat orexin 1 receptor radioligand binding; conditions: rat orexin 1 receptor; averages of 2-20 runs; read-out: rOX1 Ki
Summary of the method: (§1)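 Ki values derive from one-site competition IC50s corrected with the radioligand's predetermined Kd, triplicates per run, averaged over 2-20 runs. Cell homogenates (rat or human OX1R) compete against [^3H]-thiazolyl-oxadiazolyl-pyrrolidine methanone in PBS; 10 μM almorexant sets nonspecific binding; scintillation counting after washing.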

[2] = target: human orexin 1 receptor (Homo sapiens, UniProt O43613); assay: Human orexin 1 receptor radioligand binding; conditions: human orexin 1 receptor; averages of 2-20 runs; read-out: hOX1 Ki
Summary of the method: as §1

[3] = target: human orexin 2 receptor (Homo sapiens (Human), UniProt O43614); assay: Human orexin 2 receptor radioligand binding; conditions: human orexin 2 receptor; averages of 2-20 runs; read-out: hOX2 Ki
Summary of the method: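 Ki derived from one-site competition IC50 using predetermined Kd of [3H]-EMPA, triplicate points, 2-20 runs averaged. Binding done on homogenized HEK293 cells stably expressing human orexin 2 receptor, DMSO ≤0.1%, with 10 μM almorexant defining nonspecific binding; filtered, washed, scintillation counted.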

human orexin 2 receptor, sequence (O43614 whole entry): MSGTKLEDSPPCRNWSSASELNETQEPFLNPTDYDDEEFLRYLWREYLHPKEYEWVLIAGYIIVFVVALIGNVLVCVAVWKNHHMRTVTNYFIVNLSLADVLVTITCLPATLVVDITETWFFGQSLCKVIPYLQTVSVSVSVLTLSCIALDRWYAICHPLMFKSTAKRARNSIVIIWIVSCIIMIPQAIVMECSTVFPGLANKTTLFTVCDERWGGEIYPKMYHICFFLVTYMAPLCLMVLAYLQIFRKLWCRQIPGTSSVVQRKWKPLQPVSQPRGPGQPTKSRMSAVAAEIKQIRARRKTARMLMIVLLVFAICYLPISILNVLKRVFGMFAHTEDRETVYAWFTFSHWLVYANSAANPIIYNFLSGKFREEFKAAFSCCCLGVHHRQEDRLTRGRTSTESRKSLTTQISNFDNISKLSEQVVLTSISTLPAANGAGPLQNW

Row | Structure (SMILES) | Ki [1] [nM] | Ki [2] [nM] | Ki [3] [nM]
1 | O=C(c1cccc(F)c1-n1nccn1)N1C[C@H]2C[C@@H](Nc3cnc(Cl)cn3)[C@@H]1C2 [Example 212, ((1S,4S,6R)-6-((5-chloropyrazin-2-yl)amino)-2-azabicyclo[2.2.1]heptan-2-yl)(3-fluoro-2-(2H-1,2,3-triazol-2-yl)phenyl)methanone] | 14 | 9 | 607
2 | O=C(c1cc(F)ccc1-n1nccn1)N1CC2CC(Nc3cnc(Cl)cn3)C1C2 [Example 213, 1S,4S,6R)-6-((5-chloropyrazin-2-yl)amino)-2-azabicyclo[2.2.1]heptan-2-yl)(5-fluoro-2-(2H-1,2,3-triazol-2-yl)phenyl)methanone] | 39 | 31 | 871
3 | O=C(c1cccc(F)c1-c1ncccn1)N1C[C@H]2C[C@@H](Nc3cnc(Cl)cn3)[C@@H]1C2 [Example 214, ((1S,4S,6R)-6-((5-chloropyrazin-2-yl)amino)-2-azabicyclo[2.2.1]heptan-2-yl)(3-fluoro-2-(pyrimidin-2-yl)phenyl)methanone] | 13 | 14 | 708
4 | Cc1cnc(N[C@@H]2C[C@H]3C[C@@H]2N(C(=O)c2cccc(F)c2-n2nccn2)C3)cn1 [Example 217, (3-fluoro-2-(2H-1,2,3-triazol-2-yl)phenyl)((1S,4S,6R)-6-((5-methylpyrazin-2-yl)amino)-2-azabicyclo[2.2.1]heptan-2-yl)methanone] | 12 | 29 | 390
5 | Cc1cnc(N[C@@H]2C[C@H]3C[C@@H]2N(C(=O)c2cc(F)ccc2-n2nccn2)C3)cn1 [Example 218, (5-fluoro-2-(2H-1,2,3-triazol-2-yl)phenyl)((1S,4S,6R)-6-((5-methylpyrazin-2-yl)amino)-2-azabicyclo[2.2.1]heptan-2-yl)methanone] | 31 | 49 | 490
6 | Cc1cnc(N[C@@H]2C[C@H]3C[C@@H]2N(C(=O)c2cccc(F)c2-c2ncccn2)C3)cn1 [Example 219, (3-fluoro-2-(pyrimidin-2-yl)phenyl)((1S,4S,6R)-6-((5-methylpyrazin-2-yl)amino)-2-azabicyclo[2.2.1]heptan-2-yl)methanone] | 20 | 27 | 480
7 | O=C(c1cccc(F)c1-n1nccn1)N1C[C@H]2C[C@@H](Nc3ncc(C(F)(F)F)cn3)[C@@H]1C2 [Example 223, (3-fluoro-2-(2H-1,2,3-triazol-2-yl)phenyl)((1S,4S,6R)-6-((5-(trifluoromethyl)pyrimidin-2-yl)amino)-2-azabicyclo[2.2.1]heptan-2-yl)methanone] | 11 | 6 | 619
8 | O=C(c1ccc(F)cc1-n1nccn1)N1C[C@H]2C[C@@H](Nc3ncc(C(F)(F)F)cn3)[C@@H]1C2 [Example 224, (4-fluoro-2-(2H-1,2,3-triazol-2-yl)phenyl)((1S,4S,6R)-6-((5-(trifluoromethyl)pyrimidin-2-yl)amino)-2-azabicyclo[2.2.1]heptan-2-yl)methanone] | 37 | 33 | 1900
9 | O=C(c1cc(F)ccc1-n1nccn1)N1C[C@H]2C[C@@H](Nc3ncc(C(F)(F)F)cn3)[C@@H]1C2 [Example 225, (5-fluoro-2-(2H-1,2,3-triazol-2-yl)phenyl)((1S,4S,6R)-6-((5-(trifluoromethyl)pyrimidin-2-yl)amino)-2-azabicyclo[2.2.1]heptan-2-yl)methanone] | 20 | 16 | 800
10 | O=C(c1c(F)cccc1-n1nccn1)N1C[C@H]2C[C@@H](Nc3ncc(C(F)(F)F)cn3)[C@@H]1C2 [Example 226, (2-fluoro-6-(2H-1,2,3-triazol-2-yl)phenyl)((1S,4S,6R)-6-((5-(trifluoromethyl)pyrimidin-2-yl)amino)-2-azabicyclo[2.2.1]heptan-2-yl)methanone] | 17 | 19 | 874
11 | O=C(c1ccc(F)cc1-c1ncccn1)N1C[C@H]2C[C@@H](Nc3ncc(C(F)(F)F)cn3)[C@@H]1C2 [Example 227, (4-fluoro-2-(pyrimidin-2-yl)phenyl)((1S,4S,6R)-6-((5-(trifluoromethyl)pyrimidin-2-yl)amino)-2-azabicyclo[2.2.1]heptan-2-yl)methanone] | 12 | 13 | 3100
12 | O=C(c1c(F)cccc1-c1ncccn1)N1C[C@H]2C[C@@H](Nc3ncc(C(F)(F)F)cn3)[C@@H]1C2 [Example 229, (2-fluoro-6-(pyrimidin-2-yl)phenyl)((1S,4S,6R)-6-((5-(trifluoromethyl)pyrimidin-2-yl)amino)-2-azabicyclo[2.2.1]heptan-2-yl)methanone] | 9 | 11 | 724
13 | O=C(c1ccccc1-c1ncc(F)cn1)N1C[C@H]2C[C@@H](Nc3ncc(C(F)(F)F)cn3)[C@@H]1C2 [Example 231, (2-(5-fluoropyrimidin-2-yl)phenyl)((1S,4S,6R)-6-((5-(trifluoromethyl)pyrimidin-2-yl)amino)-2-azabicyclo[2.2.1]heptan-2-yl)methanone] | 9 | 12 | 1300
14 | O=C(c1c(F)cccc1-c1ncco1)N1C[C@H]2C[C@@H](Nc3ncc(C(F)(F)F)cn3)[C@@H]1C2 [Example 232, (2-fluoro-6-(oxazol-2-yl)phenyl)((1S,4S,6R)-6-((5-(trifluoromethyl)pyrimidin-2-yl)amino)-2-azabicyclo[2.2.1]heptan-2-yl)methanone] | 24 | 25 | 1350
15 | O=C(c1cccc(F)c1-n1nccn1)N1C[C@H]2C[C@@H](Nc3ncc(Cl)cn3)[C@@H]1C2 [Example 234, ((1S,4S,6R)-6-((5-chloropyrimidin-2-yl)amino)-2-azabicyclo[2.2.1]heptan-2-yl)(3-fluoro-2-(2H-1,2,3-triazol-2-yl)phenyl)methanone] | 17 | 12 | 827
16 | O=C(c1cc(F)ccc1-n1nccn1)N1C[C@H]2C[C@@H](Nc3ncc(Cl)cn3)[C@@H]1C2 [Example 235, ((1S,4S,6R)-6-((5-chloropyrimidin-2-yl)amino)-2-azabicyclo[2.2.1]heptan-2-yl)(5-fluoro-2-(2H-1,2,3-triazol-2-yl)phenyl)methanone] | 36 | 41 | 1300
17 | O=C(c1cccc(F)c1-c1ncccn1)N1C[C@H]2C[C@@H](Nc3ncc(Cl)cn3)[C@@H]1C2 [Example 236, ((1S,4S,6R)-6-((5-chloropyrimidin-2-yl)amino)-2-azabicyclo[2.2.1]heptan-2-yl)(3-fluoro-2-(pyrimidin-2-yl)phenyl)methanone] | 10 | 9 | 1020

More lines, now with the values ahead:

Row | Ki [1] [nM] | Ki [2] [nM] | Ki [3] [nM] | Structure (SMILES)
18 | 9 | 5 | 753 | CN(c1cnc(C(F)(F)F)cn1)[C@@H]1C[C@H]2C[C@@H]1N(C(=O)c1cc(F)ccc1-c1ncccn1)C2 [Example 209, (5-fluoro-2-(pyrimidin-2-yl)phenyl)((1S,4S,6R)-6-(methyl(5-(trifluoromethyl)pyrazin-2-yl)amino)-2-azabicyclo[2.2.1]heptan-2-yl)methanone]
19 | 6 | 5 | 502 | CN(c1cnc(C(F)(F)F)cn1)[C@@H]1C[C@H]2C[C@@H]1N(C(=O)c1ccccc1-c1ncccn1)C2 [Example 210, ((1S,4S,6R)-6-(methyl(5-(trifluoromethyl)pyrazin-2-yl)amino)-2-azabicyclo[2.2.1]heptan-2-yl)(2-(pyrimidin-2-yl)phenyl)methanone]
20 | 31 | 16 | 1300 | O=C(c1cccc(F)c1-c1ncccn1)N1C[C@H]2C[C@@H](N(CC3CC3)c3cnc(C(F)(F)F)cn3)[C@@H]1C2 [Example 211, ((1S,4S,6R)-6-((cyclopropylmethyl)(5-(trifluoromethyl)pyrazin-2-yl)amino)-2-azabicyclo[2.2.1]heptan-2-yl)(3-fluoro-2-(pyrimidin-2-yl)phenyl)methanone]
21 | 12 | 13 | 435 | O=C(c1ccccc1-c1ncccn1)N1C[C@H]2C[C@@H](Nc3cnc(Cl)cn3)[C@@H]1C2 [Example 215, ((1S,4S,6R)-6-((5-chloropyrazin-2-yl)amino)-2-azabicyclo[2.2.1]heptan-2-yl)(2-(pyrimidin-2-yl)phenyl)methanone]
22 | 11 | 17 | 284 | Cc1cnc(N[C@@H]2C[C@H]3C[C@@H]2N(C(=O)c2ccccc2-c2ncccn2)C3)cn1 [Example 220, ((1S,4S,6R)-6-((5-methylpyrazin-2-yl)amino)-2-azabicyclo[2.2.1]heptan-2-yl)(2-(pyrimidin-2-yl)phenyl)methanone]
23 | 11 | 9 | 544 | O=C(c1cc(F)ccc1-c1ncccn1)N1C[C@H]2C[C@@H](Nc3ncc(C(F)(F)F)cn3)[C@@H]1C2 [Example 228, (5-fluoro-2-(pyrimidin-2-yl)phenyl)((1S,4S,6R)-6-((5-(trifluoromethyl)pyrimidin-2-yl)amino)-2-azabicyclo[2.2.1]heptan-2-yl)methanone]
24 | 4 | 4 | 470 | O=C(c1ccccc1-c1ncccn1)N1C[C@H]2C[C@@H](Nc3ncc(C(F)(F)F)cn3)[C@@H]1C2 [Example 230, (2-(pyrimidin-2-yl)phenyl)((1S,4S,6R)-6-((5-(trifluoromethyl)pyrimidin-2-yl)amino)-2-azabicyclo[2.2.1]heptan-2-yl)methanone]
